Values quoted from earlier work as cited in patent US20020004584A1, “HIV immune adjuvant therapy” (priority 2000, published 2002).

Tests used:
HIV-1 = details: preclinical studies
[1] = in vivo
[2] = in vivo; remark: listed apart in the source

SMILES: NC(=O)NO [Hydroxyurea]
- effect on the activity of didanosine (HIV-1): synergistic effect

SMILES: CC(C)c1nc(CN(C)C(=O)N[C@H](C(=O)N[C@@H](Cc2ccccc2)C[C@H](O)[C@H](Cc2ccccc2)NC(=O)OCc2cncs2)C(C)C)cs1 [Ritonavir, ritonavir]
- adverse effects [1]: troublesome adverse effects

SMILES: CC(C)(C)NC(=O)[C@@H]1C[C@@H]2CCCC[C@@H]2CN1C[C@@H](O)[C@H](Cc1ccccc1)NC(=O)[C@H](CC(N)=O)NC(=O)c1ccc2ccccc2n1 [saquinavir]
- bioavailability [2]: poor bioavailability
